One assay addresses T1, LTD4 receptor (Cavia porcellus, UniProt Q2NNR5).
T1 construct: The membrane fraction was prepared from male guinea-pig lungs; from tissue; host or cells: male guinea-pig lung membranes
T1 sequence (Q2NNR5 1-340): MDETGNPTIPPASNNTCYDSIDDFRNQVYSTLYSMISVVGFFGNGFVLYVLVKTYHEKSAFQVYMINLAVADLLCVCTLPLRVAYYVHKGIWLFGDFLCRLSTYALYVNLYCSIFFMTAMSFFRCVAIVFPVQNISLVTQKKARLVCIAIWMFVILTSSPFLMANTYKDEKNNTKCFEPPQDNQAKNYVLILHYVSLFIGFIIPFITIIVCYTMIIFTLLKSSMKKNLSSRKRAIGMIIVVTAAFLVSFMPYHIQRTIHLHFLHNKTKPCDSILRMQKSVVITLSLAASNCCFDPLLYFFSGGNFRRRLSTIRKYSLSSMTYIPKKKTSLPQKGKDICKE
In words: LTD4 receptor binding study. The conditions noted are these: 3H-LTD4, guinea-pig lung membranes; for inhibition at 20 µM / inhibition at 100 µM: read-out: Inh. of LTD4 rec. binding, %; for IC50: read-out: Inh. of LTD4 rec. binding, IC50. On the procedure: LTD4 Receptor Binding Study
This study was performed according to the method of Burns and coworkers (Burns R. F. et al.: Life Sci. 33, 645 (1983)). The membrane fraction was prepared from male guinea-pig lungs, and 4 mg of this fraction were incubated with 0.4 nM ^3 H-LTD4 for 60 min at 25° C. in 100 μl of the incubated mixture. The nonspecific binding was determined in the presence of 0.1 μM LTD4. The filtration of the membranes, washing, and radioactivity measurement were as above.

In a further assay the test system is male mice. In words: Inhibition of arachidonic acid-induced ear inflammation in mice. The format is in vivo. The settings on record: Mus musculus, po, 1 h. On the procedure:
Inhibition of Arachidonic Acid-induced Ear Inflammation in Mice (Opas E. E. et al.: J. Invest. Dermatol. 84, 253 (1985) Ear inflammation was induced in male mice by 20 μl of arachidonic acid dissolved in acetone (concentration 100 mg/ml). The mice were sacrificed 1 h after application of arachidonic acid and the ears were cut off by standard means. The other, vehicle-treated ear of the same animal served as a control. The degree of ear hyperemia and the weight of ear lobes were evaluated. Test compounds were administered orally 1 h before the induction of inflammation.

The target in the next assay is LTB4 receptor (Cavia porcellus, UniProt H0VYV8). In words: LTB4 receptor binding study. The conditions noted are these: 3H-LTB4, guinea-pig spleen membranes; for IC50: read-out: Inh. of LTB4 rec. binding, IC50; for inhibition at 20 µM: read-out: Inh. of LTB4 rec. binding, %. On the procedure:
LTB4 Receptor Binding Study
A slightly modified method of Cheng and coworkers (Cheng J. B. et al.: J. Pharm. Expl. Ther. 236, 126 (1986)) was used. The membrane fraction was prepared from male guinea-pig spleen; 2 mg of membranes were incubated with 0.3 nM ^3 H-LTB4 at 25° C. for 30 min in 100 μl of the incubated mixture. The nonspecific binding was determined in the presence of 0.1 μM LTB4. The membranes were filtered though Whatman GF/C paper and washed triply with buffer. The radioactivity was measured by liquid scintillation spectrometry, and the specific binding of ^3 H-LTB4 to the receptor was determined.

Assay [1] has as its system LTB4 production in rat polymorphonuclear cells. Briefly: Ex vivo inhibition of LTB4 production (LTB4 biosynthesis). The class given is cell-based. The settings on record: for IC50: Rattus norvegicus, read-out: Inh. of LTB4 biosynth., IC50; for Inh. of LTB4 biosynth., %: at 30 μg (%/μg). As to the method:
Ex vivo Inhibition of LTB4 Production The production of LTB4 was determined in rat polymorphonuclear cells from pleural exudate elicited by heat-activated rat serum (Palmer R. M. J., Salmon J. A.: Immunology 50, 65 (1983)). The cells were stimulated with the Ca ionophore A 23187 (Sigma) and incubated with various concentrations of the drugs tested. The sample containing only buffer was used for the determination of unaffected biosynthesis; the complete inhibition was measured in a sample with 100 μg of NDGA in 1 ml. LTB4 was determined in supernatant using a commercial RIA kit (Amersham).

The test system of assay [2] is peroxidation of lipids from the hepatic cells membranes. Briefly: Antioxidant effect in vitro. The format is biochemical. The settings on record: at 100 μg. From the text: Antioxidant Effect in vitro
The end-product, malonic dialdehyde, was transformed to coloured complex with thiobarbituric acid and determined spectrophotometrically. The antioxidant effect was expressed in % of peroxidation inhibition in the presence of the compound tested in comparison to a control sample.

For another assay, the system named is rats. Briefly: Inhibition of carrageenan-induced pleuritis in rats. The class given is in vivo. The conditions noted are these: for inhibition in vivo at 100 mg/kg: Rattus norvegicus, po, 4 h. On the procedure:
Inhibition of Carrageenan-induced Pleuritis in Rats
(Hidaka T. J.: Pharm. Pharmacol. 38, 242 (1986) 1 ml of 0.5% carrageenan solution in saline was administered intrapleurally to experimental animals under mild ether anesthesia. Test drugs were administered in single oral dose 1 h before carrageenan injection, 4 h following the carrageenan application the rats were killed and exudate was withdrawn from opened pleural cavity. The volume of exudate, its cellularity and total cell number were determined.

In the next assay the test system is Wistar-Han rats. Briefly: Inhibition of carrageenan edema. The conditions noted are these: dose 100 mg/kg; for inhibition in vivo at 100 mg/kg: Rattus norvegicus, read-out: CE: inhibition of carrageenan-induced edema, % of inh. The class given is in vivo.
Setting [3] is: values with mark n: p > 0.05, read-out: Ear edema, D: edema of ear lobe, % of inh.
Where [4] appears, read: values with mark n: p > 0.05, read-out: Ear edema, E: hyperemia of ear lobe, % of inh.
Setting [5] is: dose 100 mg/kg, oral, values with mark n: p > 0.05, read-out: Experimental pleuritis, A: volume of exudate in pleural cavity, % of inh.
Setting [6] is: dose 100 mg/kg, oral, values with mark n: p > 0.05, read-out: Experimental pleuritis, B: number of cells, % of inh.
Where [7] appears, read: dose 100 mg/kg, oral, values with mark n: p > 0.05, read-out: Experimental pleuritis, C: cellularity in a volume unit, % of inh.
[8] abbreviates: dose 100 mg/kg, oral, values with mark n: p > 0.05, 100 mg/kg.

In brackets after ≈: the same amount, converted by molar mass. Where a name gives a salt, the structure may show the parent alone. Read-outs that look alike come from different tables or passages of the source.

Chain of LTB4 receptor (H0VYV8 1-348): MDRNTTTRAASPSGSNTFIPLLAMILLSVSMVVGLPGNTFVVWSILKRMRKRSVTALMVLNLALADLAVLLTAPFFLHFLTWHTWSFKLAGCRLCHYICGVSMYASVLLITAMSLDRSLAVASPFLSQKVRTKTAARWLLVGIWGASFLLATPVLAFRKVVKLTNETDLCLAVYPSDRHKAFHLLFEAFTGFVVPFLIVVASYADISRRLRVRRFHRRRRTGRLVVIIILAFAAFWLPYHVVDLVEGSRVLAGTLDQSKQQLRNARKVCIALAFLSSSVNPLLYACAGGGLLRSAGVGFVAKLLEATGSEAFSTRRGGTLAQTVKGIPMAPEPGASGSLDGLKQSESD

Turning to `O=C(O)Cc1ccccc1Sc1cccc(OCCCN2CCN(Cc3ccc(Cl)cc3)CC2)c1` [Compound 28, Dihydrogenmaleate of 2-(3-(3-(1-(4-Chlorobenzyl)piperazin-4-yl)-propoxy)phenylsulfanyl)phenylacetic Acid], the inhibition at 20 µM at LTD4 receptor was determined as 10%; on LTB4 receptor (at 20 μM) it was 69%. Besides, the inhibition in vivo at 200 mg/kg stood at 16% with male mice (setting [3]) and 19% in the assay with male mice (setting [4]). Also, the IC50 on LTB4 receptor worked out at 7.9 µM; in assay [1], 0.6 µg/mL (≈ 1.17 µM). In assay [1], the “Inh. of LTB4 biosynth., %” value came to 100%. Also, the “Antiox. effect, % of peroxidation inhibition” value in assay [2] was 3%. The inhibition in vivo at 100 mg/kg in the assay with rats (setting [5]) was 10%; in the assay on rats (setting [6]) it was 21%; in the assay on rats (setting [7]) it was 14%; in the assay with Wistar-Han rats, 18%.

Consider `COc1cc(C(=O)NS(=O)(=O)c2ccccc2C)ccc1Cc1cn(C)c2ccc(NC(=O)OC3CCCC3)cc12` [Accolate, reference compound], for which, at LTD4 receptor, the IC50 is 0.03 µM and the inhibition at 100 µM worked out at 94%. At LTB4 receptor (at 20 μM), the inhibition at 20 µM is 0%. In addition, in assay [1], the IC50 amounted to 1.12 µg/mL (≈ 1.95 µM) and the “Inh. of LTB4 biosynth., %” value was 98%.

Consider `COC(=O)c1ccccc1Sc1cccc(OCCCN2CCN(CCO)CC2)c1` [Compound 15, Bis-hydrogenmaleate of Methyl 2-(3-(3-(1-(2-hydroxyethyl)piperazin-4-yl)-propoxy)phenyl-sulfanyl)benzoate], for which the inhibition at 100 µM at LTD4 receptor turned out to be 22%. In addition, the inhibition in vivo at 200 mg/kg with male mice (setting [3]) came to 7%; in the assay with male mice (setting [4]) it was 3%. The IC50 in assay [1] came out at 12.6 µg/mL (≈ 29.3 µM). Further, in assay [1], the “Inh. of LTB4 biosynth., %” value is reported as 88%. Besides, in assay [2], the “Antiox. effect, % of peroxidation inhibition” value is 0%. Moreover, the inhibition in vivo at 100 mg/kg in the assay with rats (setting [5]) is 2%; in the assay on rats (setting [6]) it was 15%; in the assay with Wistar-Han rats it was 9%.

Regarding `O=C(O)c1ccccc1Sc1ccc(OCCCCN2CCN(Cc3ccc(Cl)cc3)CC2)cc1` [Compound 14], at LTD4 receptor, the IC50 is 33 µM and the inhibition at 100 µM amounted to 86%. Further, the inhibition at 20 µM on LTB4 receptor (at 20 μM) is 16%. Moreover, in assay [1], the IC50 was 9.5 µg/mL (≈ 18.6 µM) and the “Inh. of LTB4 biosynth., %” value was 100%.

Turning to `O=C(O)c1ccccc1Sc1ccc(OCCN2CCN(Cc3ccc(Cl)cc3)CC2)cc1` [Compound 11, Hydrogenmaleate of 2-(4-(2-(1-(4-Chlorobenzyl)piperazin-4-yl)ethoxy)-phenylsulfanyl)benzoic Acid], the IC50 is 120 µM at LTD4 receptor and 0.02 µg/mL (≈ 0.0414 µM) in assay [1]. Besides, on LTD4 receptor, the inhibition at 100 µM was found to be 36%. Besides, the inhibition in vivo at 200 mg/kg with male mice (setting [3]) turned out to be 22%; in the assay with male mice (setting [4]) it was 0%. For the same compound, the inhibition at 20 µM on LTB4 receptor (at 20 μM) was found to be 25%. For the same compound, the “Inh. of LTB4 biosynth., %” value in assay [1] is recorded as 97%. Further, the “Antiox. effect, % of peroxidation inhibition” value in assay [2] is 10%. For the same compound, the inhibition in vivo at 100 mg/kg in the assay on Wistar-Han rats turned out to be 33%.

`O=C(O)Cc1ccc(Sc2ccc(OCc3ccc4ccccc4n3)cc2)cc1` [Compound 30, 4-(4-(Quinoline-2-ylmethoxy)phenylsulfanyl)phenylacetic Acid]: the IC50 at LTD4 receptor was determined as 2.3 µM; on LTB4 receptor, 20.5 µM; in assay [1] it was 0.004 µg/mL (≈ 0.00996 µM). Besides, the results for the inhibition at 20 µM on LTD4 receptor and at LTB4 receptor (at 20 μM) were 80% and 43%, respectively. The “Inh. of LTB4 biosynth., %” value in assay [1] is listed as 94%. In addition, the “Antiox. effect, % of peroxidation inhibition” value in assay [2] was 14%. Besides, the inhibition in vivo at 100 mg/kg in the assay on rats (setting [5]) is 27%; in the assay on rats (setting [6]), 30%; in the assay on rats (setting [7]), 2%; in the assay with Wistar-Han rats, 41%.

For the compound `O=C(O)Cc1ccccc1Sc1ccc(OCc2ccc3cc(Cl)ccc3n2)cc1` [Compound 32, 2-(4-(6-Chloroquinoline-2-ylmethoxy)phenylsulfanyl)phenylacetic Acid], the IC50 on LTD4 receptor turned out to be 1 µM; at LTB4 receptor, 30 µM. In addition, the inhibition at 100 µM on LTD4 receptor was 81%. Further, the inhibition at 20 µM at LTB4 receptor (at 20 μM) turned out to be 38%. In addition, in assay [1], the “Inh. of LTB4 biosynth., %” value is reported as 62%. Further, the “Antiox. effect, % of peroxidation inhibition” value in assay [2] is 14%.

With `NC(=O)N1C(=O)C(=C(O)c2cccs2)c2cc(Cl)ccc21` [Tenidap Na^+, reference compound], the IC50 at LTD4 receptor was found to be 418 µM; in assay [1], 1.04 µg/mL (≈ 3.24 µM). Also, on LTD4 receptor, the inhibition at 100 µM came to 10%. The inhibition in vivo at 200 mg/kg with male mice (setting [3]) stood at 14%; in the assay with male mice (setting [4]) it was 76%. For the same compound, on LTB4 receptor (at 20 μM), the inhibition at 20 µM came out at 8%. Besides, the “Inh. of LTB4 biosynth., %” value in assay [1] was determined as 100%. For the same compound, the inhibition in vivo at 100 mg/kg in the assay with rats (setting [6]) is 73%; in the assay with rats (read-out: Experimental pleuritis, A: volume of exudate in pleural cavity, % of inh.), 72%; in the assay with rats (read-out: Experimental pleuritis, C: cellularity in a volume unit, % of inh.) it was 6%; with Wistar-Han rats, 61%.

Regarding `O=C(O)c1ccc(Sc2ccc(OCc3ccc4ccccc4n3)cc2)cc1` [Compound 24, Tromethammonium salt of 4-(4-(Quinoline-2-ylmethoxy)phenylsulfanyl)benzoic Acid], at LTD4 receptor, the IC50 worked out at 0.31 µM and the inhibition at 20 µM was determined as 95%. The IC50 on LTB4 receptor came to 14.7 µM. In addition, the “Inh. of LTB4 rec. binding, %” value at LTB4 receptor (at 20 μM) is 42%. In assay [1], the “Inh. of LTB4 biosynth., IC50” value came to 0.18 µg/mL and the “Inh. of LTB4 biosynth., %” value is reported as 99%. Besides, the “Antiox. effect, % of peroxidation inhibition” value in assay [2] worked out at 13%. In the assay on rats (setting [8]), the “Experimental pleuritis, A: volume of exudate in pleural cavity, % of inh.” value was 23%; the “Experimental pleuritis, B: number of cells, % of inh.” value is reported as 32%; the “Experimental pleuritis, C: cellularity in a volume unit, % of inh.” value was found to be 6%. In addition, in the assay with Wistar-Han rats, the “CE: inhibition of carrageenan-induced edema, % of inh.” value turned out to be 27%.

These data come from patent US6303612A, “Derivatives of hydroxyphenylsulfanylbenzoic and hydroxphenylsulfanylarylacetic acids” (Leciva, A.S., priority 1998, dated 2001).
